Experimental data from US7312219B2, “Heteroaromatic inhibitors of fructose 1,6-bisphosphatase” (Metabasis Therapeutics, Inc., priority 1998, dated 2007).
Where two headings read alike, the source gives them in different places.

Tests used:
rat liver FBPase = molecular target: T1, rat liver FBPase (Rattus norvegicus, UniProt P19112); test: Inhibition of Rat Liver FBPase
T1 sequence (P19112 2-363 limits assumed): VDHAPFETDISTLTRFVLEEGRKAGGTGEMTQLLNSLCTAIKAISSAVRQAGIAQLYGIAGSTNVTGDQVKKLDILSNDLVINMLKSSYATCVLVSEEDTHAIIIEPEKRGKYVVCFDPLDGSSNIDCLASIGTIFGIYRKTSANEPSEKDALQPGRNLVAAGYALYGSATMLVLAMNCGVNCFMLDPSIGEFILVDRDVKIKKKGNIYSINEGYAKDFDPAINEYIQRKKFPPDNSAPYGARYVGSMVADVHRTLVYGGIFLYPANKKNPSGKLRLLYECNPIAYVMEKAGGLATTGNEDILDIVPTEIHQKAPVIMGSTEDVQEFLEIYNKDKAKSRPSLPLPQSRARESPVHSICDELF
Protocol: Enzymatic activity was measured spectrophotometrically in reactions that coupled the formation of product (fructose 6-phosphate) to the reduction of dimethylthiazoldiphenyltetrazolium bromide (MTT) via NADP^+ and phenazine methosulfate (PMS), using phosphoglucose isomerase and glucose 6-phosphate dehydrogenase as the coupling enzymes.
E. coli strain BL21 transformed with a rat liver FBPase-encoding plasmid was obtained from Dr. M. R. El-Maghrabi at the State University of New York at Stony Brook.

human liver FBPase = molecular target: T2, human liver FBPase (Homo sapiens, UniProt P09467); test: Inhibition of Human Liver FBPase; type: biochemical; details: read-out: IC50 (hlFBPase)
T2 construct: made in house; host or cells: E. coli BL21
T2 sequence (P09467 2-338 limits assumed): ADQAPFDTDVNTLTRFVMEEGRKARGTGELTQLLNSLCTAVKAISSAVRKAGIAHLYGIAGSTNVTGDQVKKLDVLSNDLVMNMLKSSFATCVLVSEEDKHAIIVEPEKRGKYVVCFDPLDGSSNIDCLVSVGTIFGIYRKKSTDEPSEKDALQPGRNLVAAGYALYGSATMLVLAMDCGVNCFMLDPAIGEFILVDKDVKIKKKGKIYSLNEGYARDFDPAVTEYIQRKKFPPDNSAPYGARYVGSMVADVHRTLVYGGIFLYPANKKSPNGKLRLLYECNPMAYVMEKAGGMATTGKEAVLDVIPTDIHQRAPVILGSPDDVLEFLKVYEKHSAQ

SMILES	IC50 (rat liver FBPase; read-out: IC50 (rlFBPase)) [nM]	IC50 (human liver FBPase) [nM]	IC50 (rat liver FBPase) [nM]	melting point [°C]
Nc1ncnc2c1ncn2[C@@H]1O[C@H](COP(=O)(O)O)[C@@H](O)[C@H]1O [AMP, reference compound]	20000	1000	–	–
CC(C)Cc1[se]c(N)nc1-c1ccc(P(=O)(O)O)o1 [Compound 3.70, 2-Amino-5-isobutyl-4-[2-(5-phosphono)furanyl]selenazole]	–	40	150	–
CCCc1cnc(N)nc1-c1ccc(P(=O)(O)O)o1 [Compound 16.1, 2-amino-5-propyl-4-[2-(5-phosphono)furanyl]pyrimidine]	–	–	–	258 to 259
